“And” between values parts separate entries of the source, which are not always exact repeats. Identical values can stand only once.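 Protocol summary: plate cells (96-well), add compound at 5 concentrations, incubate 48 h, interpolate endpoints linearly. GI50 marks 50% less growth. The concentration for full growth arrest is given as TGI.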
Key:
Assay in all cases: DTP human tumour cell line panel, 48 h
SNB-78 CNS = test system: SNB-78 CNS
SNB-19 CNS = test system: SNB-19 CNS
A498 renal = test system: A498 renal
HOP-18 NSCLC = test system: HOP-18 NSCLC
SK-MEL-2 melanoma = test system: SK-MEL-2 melanoma
EKVX NSCLC = test system: EKVX NSCLC
SF-268 CNS = test system: SF-268 CNS
DMS 114 small cell lung = test system: DMS 114 small cell lung
DLD-1 colon = test system: DLD-1 colon
DMS 273 small cell lung = test system: DMS 273 small cell lung

Structure (SMILES)	TGI (SNB-78 CNS) [µM]	TGI (SNB-19 CNS) [µM]	TGI (A498 renal)	TGI (HOP-18 NSCLC) [µM]	TGI (SK-MEL-2 melanoma) [µM]	TGI (EKVX NSCLC) [µM]	TGI (SF-268 CNS) [µM]	TGI (DMS 114 small cell lung)	TGI (DLD-1 colon) [µM]	TGI (DMS 273 small cell lung) [µM]	GI50 (SNB-78 CNS) [µM]	GI50 (SNB-19 CNS) [µM]	GI50 (HOP-18 NSCLC)	GI50 (EKVX NSCLC) [µM]	GI50 (SF-268 CNS) [µM]	GI50 (DLD-1 colon) [µM]	GI50 (A498 renal)	GI50 (SK-MEL-2 melanoma)	GI50 (DMS 273 small cell lung)
CCCCCCCCCCCCCC(=O)CBr	30.9	33.7	35.5 µM	29.3	26.3	39.9	20	9.3 µM	34.3	–	–	–	–	–	–	–	–	–	–
Cc1cc(=O)oc2cc3c(cc12)Oc1ccccc1O3	> 100	> 100	> 100 µM	> 100	> 100	> 10	> 100	> 100 µM	> 100	> 100	–	–	–	–	–	–	–	–	–
COc1ccc2oc3cccc(NCCN(C)C)c3c(=O)c2c1	36	28.9	33.8 µM	24	30.2	29.2	28.3	27 µM	27.5	25.3	–	–	–	–	–	–	–	–	–
CC1C(=O)C(C)C(c2ccccc2)N(N=O)C1c1ccccc1 (centres undefined)	> 766	> 830	696 µM	> 1000	623	> 1000	352	–	> 1000	> 1000	220	312	> 1000 µM	> 1000	44	> 1000	–	–	–
O=C(CSC(=S)N1CCOCC1)Nc1nc2c(s1)CCCC2	> 100	–	> 100 µM	–	> 100	> 100	> 100	> 100 µM	> 100	> 100	–	–	–	–	–	–	–	–	–
O=C1CC[C@@H](S(=O)(=O)c2ccccc2)[C@@H](/C=C/c2ccccc2)O1	–	> 100	> 100 µM	> 100	–	> 100	–	> 100 µM	–	–	–	–	–	–	–	–	–	–	–
COc1cc(/C=C/C(=O)c2sc(Nc3ccccc3)nc2C)ccc1O	> 100	> 100	> 100 µM	> 100	> 100	> 100	> 100	> 100 µM	> 100	> 100	–	–	–	–	–	–	–	–	–
O=c1cc(-c2ccccc2)c2cc3c(=O)ccoc3cc2o1	–	> 100	78.7 µM	–	> 100	> 100	> 100	> 100 µM	> 100	> 100	–	–	–	–	–	–	–	–	–
CC(=O)c1cc([N+](=O)[O-])ccc1OCC(=O)O	> 100	> 100	> 100 µM	–	> 100	> 100	> 100	> 100 µM	> 100	> 100	–	–	–	–	–	–	–	–	–
N#C/C(=C\c1cccc(O)c1)C(N)=O	> 100	> 100	> 100 µM	–	> 100	> 100	> 100	> 100 µM	> 100	> 100	–	–	–	–	–	–	–	–	–
COc1cccc(C2c3cc4c(cc3OC(O)(CO)C2C(=O)O)OCO4)c1 (centres undefined) (tested in a mixture with another compound)	–	–	> 100 µM	> 100	> 100	> 100	> 100	> 100 µM	> 100	> 100	–	–	–	–	–	–	–	–	–
CC1S(=O)(=O)OCCOS1(=O)=O	> 100	> 100	> 100 µM	> 100	> 100	> 100	> 100	> 100 µM	> 100	> 100	–	–	–	–	–	–	–	–	–
N[C@H](C(=O)O)[C@H](Cl)CC(=O)O	> 100	> 100	> 100 µM	> 100	> 100	> 100	> 100	> 100 µM	> 100	> 100	–	–	–	–	–	–	–	–	–
O=C(CN1CCN(c2ccccc2)CC1)N1CCc2c([nH]c3ccccc23)C1c1cccnc1 (centres undefined)	> 100	> 100	> 100 µM	> 100	> 100	> 100	> 100	> 65 µM	> 100	> 100	–	–	–	–	–	–	–	–	–
CC(=O)n1c2ccccc2c2nc3nc(Oc4ccc(C)cc4)c4ccccc4c3cc21	> 100	> 100	–	–	> 100	> 100	> 100	> 100 µM	> 100	> 100	–	–	–	–	–	–	–	–	–
O=C(O)c1cc(=O)c2[nH]c3ccccc3c2s1	> 100	> 100	–	–	> 100	> 100	> 100	> 100 µM	> 100	–	–	–	–	–	–	–	–	–	–
CCCCCCCCCCCCCCCCCCCCCC(=O)Nc1ccn(C2OC(CO)C(O)C2O)c(=O)n1 (centres undefined)	> 100	> 100	> 100 µM	> 100	> 100	> 100	> 100	> 43.2 µM	> 100	> 100	–	–	–	–	–	–	–	–	–

Structure (SMILES)	TGI (SNB-78 CNS) [µM]	TGI (SNB-19 CNS) [µM]	TGI (A498 renal)	TGI (HOP-18 NSCLC) [µM]	TGI (SK-MEL-2 melanoma) [µM]	TGI (EKVX NSCLC) [µM]	TGI (SF-268 CNS) [µM]	TGI (DMS 114 small cell lung)	TGI (DLD-1 colon) [µM]	TGI (DMS 273 small cell lung) [µM]	GI50 (SNB-78 CNS) [µM]	GI50 (SNB-19 CNS) [µM]	GI50 (HOP-18 NSCLC)	GI50 (EKVX NSCLC) [µM]	GI50 (SF-268 CNS) [µM]	GI50 (DLD-1 colon) [µM]	GI50 (A498 renal)	GI50 (SK-MEL-2 melanoma)	GI50 (DMS 273 small cell lung)
Cc1ccc(NC(=O)/C(=N\Nc2ccc([N+](=O)[O-])cc2[N+](=O)[O-])C2C(=O)NC(=O)NC2=O)cc1	> 100	> 100	> 100 µM	> 100	–	–	> 100	> 100 µM	> 100	–	–	–	–	–	–	–	–	–	–
CCC12CCCC(=O)N1C(CO)C(c1ccccc1)O2 (centres undefined)	> 100	> 100	> 100 µM	> 100	> 100	> 100	> 100	> 100 µM	> 100	> 100	–	–	–	–	–	–	–	–	–
CCCCCCCCCc1cc(=O)c2ccc(O)cc2o1	> 100	> 100	–	> 100	> 100	> 100	> 100	> 100 µM	> 100	> 100	–	–	–	–	–	–	–	–	–
COc1cc([C@@H]2c3cc4c(cc3[C@@H](NC(=O)c3ccccc3)C3COC(=O)[C@@H]32)OCO4)cc(OC)c1O (some centres undefined)	> 100	> 100	27 µM	> 100	57.3	87.1	> 100	21.4 µM	> 100	13.7	–	–	–	–	–	–	–	–	–
NNC(=O)CCC(=O)NC1C2CC3CC(C2)CC1C3 (centres undefined)	> 100	> 100	> 100 µM	–	> 100	–	> 100	> 100 µM	> 100	> 100	–	–	–	–	–	–	–	–	–
N#CC(C(=O)C(=O)NCCCNC(=O)C(=O)C(C#N)c1ccccc1)c1ccccc1 (centres undefined)	> 100	> 100	> 100 µM	> 100	> 100	> 100	> 100	> 100 µM	> 100	> 100	–	–	–	–	–	–	–	–	–
COc1ccc(NC(=O)c2cc(OC)c(OC)c(OC)c2)cc1	> 100	> 100	> 100 µM	> 100	65.2	> 100	> 94.8	> 100 µM	> 100	> 100	–	–	–	–	–	–	–	–	–
COc1cccc(C(=O)C2C(=O)N(C)CCc3ccccc32)c1OC (centres undefined)	–	> 100	> 100 µM	> 100	> 100	–	–	> 100 µM	> 100	> 100	–	–	–	–	–	–	–	–	–
CSc1nc2c(nc(N)n2C2OCC(O)C(O)C2O)c(=O)n1C (centres undefined)	> 100	> 100	> 100 µM	> 100	–	> 100	> 100	> 100 µM	> 100	–	–	–	–	–	–	–	–	–	–
CC(=O)Oc1ccc(O)c(O)c1C/C=C(\C)CC/C=C(\C)CC/C=C(\C)CCC=C(C)C	1.34	2.8	–	0.879	2.9	3.81	2.18	1.29 µM	1.41	0.817	–	–	–	–	–	–	–	–	–
CCOc1ccc(NCc2cc(OC)c(OC)c(OC)c2)cc1	> 100	> 100	> 48 µM and 59.5 µM	> 100	> 100	> 100	> 100	3.17 µM and 20 µM	> 100	> 100	–	4.9	2.46 µM and 10.2 µM	–	–	–	1.05 µM and 4.61 µM	2.22 µM and 0.429 µM	0.296 µM and 0.821 µM
COc1cc(CNc2ccc(C(C)C)cc2)cc(OC)c1OC	> 100	99.1	67.7 µM	74.1	32.9	> 100	> 100	48.7 µM	48.8	26.3	–	–	–	–	–	–	–	–	13 µM
OCCCCCCOc1ccc(-c2cc(-c3ccccn3)nc(-c3ccccn3)c2)cc1	10.9	37.8	5.77 µM	3.99	1.13	4.97	1.32	1.48 µM	2.99	0.978	–	–	–	–	–	–	–	–	–
CC(C)CC1=[N+]=C(NC#N)N=C(CCC(=O)Nc2ccccc2[N+](=O)[O-])C1	–	> 100	> 100 µM	> 100	–	> 100	> 100	> 100 µM	> 100	–	–	–	–	–	–	–	–	–	–
O=C1C2=C(c3ccccc31)C(c1ccccc1)NC(=S)N2 (centres undefined)	–	> 100	> 100 µM	–	> 100	> 100	> 100	> 100 µM	> 100	> 100	–	–	–	–	–	–	–	–	–
Cc1cc2c3ccccc3n(C)c2c2c1C(=O)C=CC2=O	49.1	73	35.5 µM	–	37.7	19	39.1	13 µM	27	29.1	–	–	–	–	–	–	–	–	–
COc1nc2nccc-2c2occn12	> 100	> 100	> 100 µM	> 100	> 100	> 100	> 100	> 100 µM	> 100	> 100	–	–	–	–	–	–	–	–	–

From PubChem BioAssay (NCI)
